Results reported in patent US9517214B2, “Fat-based food products” (IP Science Limited, priority 2011, dated 2016).

Legend:
[1] = tested on: clinically healthy volunteers with hypercholesterolaemia; assay: Antibody inflammatory marker Px-IgG in the same trial; format: in vivo, human; settings: 7 mg lycopene daily, capsules; Baseline; individual volunteers
Procedure: (§1) Clinically Healthy Volunteers with Hypercholesterolaemia
(§2) Commercially available butter (President, Lactalis) was melted at 40° C. The melted butter was blended with tomato oleoresin, containing 15% of lycopene (Lyc-O-Mato), in the ratio of […] of oleoresin to 30 g of the butter in a thermo-controlled mixer. The mixture was blended for 10 minutes and cooled down to the room temperature. The butter was then divided into daily 30 g portions. Butter was stored at 4° C. until use. Freshly made batches of the L-Butter were made weekly.
(§3) Each portion of 30 g butter contained 47.1 mg of tomato oleoresin or about 7 mg of lycopene.
(§4) The melting and mixing procedures were performed as described above using the same commercially available butter, but instead of tomato oleoresin, sunflower oil (Flora™) was used.
(§5) 47.1 mg of tomato oleoresin was pre-dissolved in ethanol and mixed with Whey Protein as described in Richelle et al (2002) J. Nutr 132 404-408, WO01/091588 and US2002/01072992. Then the mixture was placed into gelatine capsules.
(§6) 18 clinically healthy volunteers, 9 males and 9 females, age 45-69, were recruited for this study.
(§7) • elevated total serum cholesterol above 200 mg/dL and/or triglycerides above 150 mg/dL, • all patients were naive for any lipid-lowering medications, • willing participate in the study. […]
(§8) All blood samples were coded. Their lab analysis and reading of the results were blinded. […]

[2] = daily consumption of 6-10 mg lycopene; cited from earlier work
[3] = tested on: clinically healthy volunteers with hypercholesterolaemia; assay: Serum lipids (TC, TG, HDL, LDL) in trial of lycopene, butter and L-Butter; format: in vivo, human; settings: after one week of administration of 7 mg of lycopene
Procedure: as §1, §2, §3, §4, §5, §6, §7, §8

CC(C)=CCC/C(C)=C/C=C/C(C)=C/C=C/C(C)=C/C=C/C=C(C)/C=C/C=C(C)/C=C/C=C(\C)CCC=C(C)C [Lycopene]
Px-IgG [1]: 0.765 U/ml
effect on cholesterol or other blood lipids [2]: no effect
changes in levels of elevated cholesterol, triglycerides and markers of oxidative damage or inflammation [3]: not any changes
